Patent publication US20240150335A1, “FUSED RING DERIVATIVES CONTAINING 1,4-OXAZEPANE” (MEDSHINE DISCOVERY INC., priority 2021, published 2024)

What was measured:
[1] = Pharmacokinetic evaluation in CD-1 mice; assay type: in vivo; details: oral administration 10.0 mg/kg
Protocol: Experimental Example 3: Pharmacokinetic Evaluation of the Compound of the Present Disclosure in […]
Experimental purpose: To test the pharmacokinetics of the compound in CD-1 mice in vivo
(§1) Experimental materials: CD-1 mice (male, 20 to 40 g, 4 to 6 weeks old, Beijing Vital River)
(§2) The pharmacokinetic characteristics of the compound in rodents after intravenous injection and oral administration were tested according to the standard protocol. In the experiment, the candidate compound was formulated into clear solutions, and a single intravenous injection and oral administration were respectively given to two mice. The vehicle of intravenous injection and oral administration was 1:1:8 DMSO/Solutol/water. The whole blood samples within 24 hours were collected in commercial EDTA2K anticoagulant tubes. The tubes were centrifuged at 6000 g for 3 minutes. The supernatant was separated to obtain plasma samples. 20 times the volume of acetonitrile solution containing internal standard was added to precipitate protein. The mixture was centrifuged. The supernatant was take out. An equal volume of water was added. Then the mixture was centrifuged to take the supernatant as the sample for sampling. Plasma concentration was quantitatively analyzed by LC-MS/MS analysis method, and pharmacokinetic parameters were calculated, such as apparent volume of distribution, clearance rate, half-life, area under the drug-time curve.

[2] = Mouse tissue (bone marrow) distribution; assay type: in vivo; details: CD-1 mice
Protocol: Experimental Example 5: Evaluation of Mouse Tissue (Bone Marrow) Distribution of the Compound of the Present Disclosure
Experimental purpose: To test the distribution of the compound of the present disclosure in the bone marrow and plasma of CD-1 mice
as §1
The content of the compound in the bone marrow and plasma of mice after oral administration was tested according to the standard protocol. In the experiment, the candidate compound was formulated into a clear solution. The vehicle was 5:95 DMSO and 10% hydroxypropyl β-cyclodextrin aqueous solution. A dose of 5 mg/kg was given to mice as a single oral administration. The whole blood samples and bone marrow samples were collected at 0.25, 0.5, 1, 2, 4, 6, and 24 hours, respectively. The whole blood samples were collected in commercial EDTA2K anticoagulant tubes. The tubes were centrifuged at 6000 g for 3 minutes. The supernatant was separated to obtain plasma samples. The acetonitrile solution containing internal standard was added to precipitate protein. The mixture was centrifuged. The supernatant was take out. An equal volume of water was added. After mixing well, plasma concentration was quantitatively analyzed by LC-MS/MS analysis method, and the area under the drug-time curve was calculated. The femur and tibia on both sides of the mice were taken, and the muscle was removed. One end was cut off, placed in a centrifuge tube with the open end downwards. The tubes were centrifuged at 8000 rpm for 1 minute. The precipitate was bone marrow. The bone marrow was mixed with 50% methanol-water, grinded into a homogenate. The homogenate was added with an acetonitrile solution containing an internal standard to precipitate protein. The mixture was centrifuged to take the supernatant, added with an equal volume of water. After mixing well, the drug concentration in bone marrow was quantitatively analyzed by LC-MS/MS analysis method, and the area under the drug-time curve was calculated.
The calculation formula of bone marrow/plasma distribution coefficient is: Bone marrow/Plasma Ratio=bone marrow AUC0-last/plasma AUC0-last.

[3] = Pharmacokinetic evaluation in SD rats; assay type: in vivo; details: oral administration 10.0 mg/kg
Protocol: Experimental Example 4: Pharmacokinetic Evaluation of the Compound of the Present Disclosure in Rats
Experimental purpose: To test the pharmacokinetics of the compound in SD rats in vivo
Experimental materials: SD rats (male, 200 to 300 g, 6 to 10 weeks old, Beijing Vital River)
as §2, with “rats.” for “mice.”, “is 5:95 DMSO and 10% hydroxypropyl β-cyclodextrin aqueous solution.” for “was 1:1:8 DMSO/Solutol/water.”

[4] = target: DPP1 of U937 cells (Homo sapiens (Human), UniProt P53634); experiment: Activity test of inhibiting DPP1 in U937 cells; assay type: cell-based; details: Gly-Phe-AFC probe, read-out: IC50, inhibitory activity on DPP1 of U937 cells
Sequence of DPP1 of U937 cells (P53634 25-134): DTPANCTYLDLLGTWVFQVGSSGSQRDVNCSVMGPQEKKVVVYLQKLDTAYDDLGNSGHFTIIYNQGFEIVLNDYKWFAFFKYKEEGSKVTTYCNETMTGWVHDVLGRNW
Sequence of DPP1 of U937 cells (P53634 231-394): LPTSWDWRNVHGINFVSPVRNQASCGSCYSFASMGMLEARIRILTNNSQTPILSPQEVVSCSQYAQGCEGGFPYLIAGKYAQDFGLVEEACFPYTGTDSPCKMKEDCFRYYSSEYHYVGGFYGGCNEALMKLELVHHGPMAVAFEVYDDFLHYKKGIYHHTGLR
Sequence of DPP1 of U937 cells (P53634 395-463): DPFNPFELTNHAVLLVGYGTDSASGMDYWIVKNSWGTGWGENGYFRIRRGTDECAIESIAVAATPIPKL
Protocol: Experimental Example 2: Activity Test of Inhibiting DPP1 in U937 Cells
Experimental Materials: • 1) Experimental reagents and consumables
The cell plate was placed in a carbon dioxide incubator for 1 day; • (3) after incubation for 1 hour, 100 μM Gly-Phe-AFC probe solution was added thereto, that is, 60 mM Gly-Phe-AFC probe stock solution was diluted with culture medium to 500 μM working solution; the working solution in 10 μL per well was transferred into the cell plate, and the cell plate was incubated in a carbon dioxide incubator for 1 hour;
3) the plate was read, and the data were analyzed: • (1) plate reading: after the cell incubation was completed, the cell plate was taken out, and the plate was read on Victor Nivo.
Using the equation (Sample−Min)/(Max−Min)×100% to convert the raw data into inhibition rate, the IC50 value might be obtained by curve fitting with four parameters (obtained by “log (inhibitor) vs. response—Variable slope” mode in GraphPad Prism).

[5] = intravenous injection 2.0 mg/kg
[6] = plasma, intravenous injection 2.0 mg/kg
[7] = plasma, intravenous injection 2.0 mg/kg, read-out: Peak concentration Cmax
[8] = bone marrow, 5 mg/kg single oral administration

Bioavailability F [1, 5]: 79.6%
Clearance rate CL [1, 6]: 18.7 mL/min/kg
Volume of distribution at steady state Vdss [1, 6]: 8.3 L/kg
Cmax [1, 7]: 2310 nM
Area under drug-time curve AUC0-∞ PO ([1]; plasma): 17.008 µM·h
Half life T1/2 (PO) ([1]; plasma): 4.6 h
Bone marrow/plasma distribution coefficient ([2]; 5 mg/kg oral, bone marrow AUC0-last/plasma AUC0-last): 4.5
Bone marrow Area under drug-time curve AUC0-last PO [2, 8]: 82362 nmol·h/kg
Bone marrow Peak concentration Cmax [2, 8]: 6113 nmol/kg
Plasma Area under drug-time curve AUC0-last PO ([2]; plasma, 5 mg/kg single oral administration): 18.362 µM·h
Cmax ([2]; plasma, 5 mg/kg single oral administration, read-out: Plasma Peak concentration Cmax): 2300 nM
Bioavailability F [3, 5]: 39.1%
Clearance rate CL [3, 6]: 13.1 mL/min/kg
Volume of distribution at steady state Vdss [3, 6]: 1.9 L/kg
Cmax [3, 7]: 2240 nM
Area under drug-time curve AUC0-∞ PO ([3]; plasma): 11.864 µM·h
Half life T1/2 (PO) ([3]; plasma): 3.2 h
IC50 [4]: 2.4 nM
SMILES: Cn1ncc2ccc(-c3ccc(C[C@@H](C#N)NC(=O)[C@@H]4CNCCCO4)c(F)c3)cc21 [Compound 8]
